# Reference: patent publication US10138468B2, “Method for differentiation of pluripotent stem cells into multi-competent renal precursors” (Hoffmann-La Roche Inc., priority 2013, dated 2018)
# Entries after “also recorded” stand apart in the source; their conditions may differ.
# Assays:
# [1] = test system: hPSCs-derived Podocytes cells; experiment: Functional response to stressor stimulation: ZO-1 localization by immunocytochemistry and image based high content analysis; format: cell-based, human; conditions: podocytes at Day 13, already at Day 1, sustained at D2 and D5, DMEMF12 medium
# Procedure: FIG. 6: Characterization of monolayer differentiated hPSCs-derived Podocytes cells at Day 13. hiPSCs have been differentiated in monolayer conditions and at Day 13 have been tested for functional response to TGF beta (10 ng/ml) stressor stimulation. The expression of the tight junction marker ZO-1 has been tested by immunocytochemistry analysis and its cellular localization by image based high content analysis (HCA).
# FIG. 7: Characterization of monolayer differentiated hPSCs-derived Podocytes cells at Day 13. hiPSCs have been differentiated in monolayer conditions and at Day 13 have been tested for functional response to Angiotensin II (AngII) (100 nM) stressor stimulation. The expression of the tight junction marker ZO-1 has been tested by immunocytochemistry analysis and its cellular localization by image based high content analysis (HCA).
# The cells were fixed with PBS containing 4% paraformaldehyde for 20 min at room temperature. After three washing with PBS the cells the cells were then blocked with 5% BSA solution (Blocking buffer) for 60 min. When probing for an intracellular antigen, 0.5% Triton-X was included in the blocking buffer. […] Fluorescence was acquired and analyzed by the Operetta® High Content Imaging System (PerkinElmer) followed by computer-based image analysis (ImageJ, Java-based image processing program). […]
# [2] = test system: hPSCs-derived Podocytes cells; experiment: Pro-inflammatory cytokine response assay (Bio-Plex Pro Cytokine, Chemokine and Growth factor assay); format: cell-based, human; conditions: TNFα 1 ng/ml and 5 ng/ml, 24 h, DMEMF12 medium
# Procedure: FIG. 8a: Pro-inflammatory cytokine response assay. hPSCs-derived Podocytes cells at Day 13 upregulate the expression of pro-inflammatory markers such as IL-8 upon stimulation with TNFα (1 ng/ml and 5 ng/ml) after 24 h in DMEMF12 medium Main panel: Quantification graph: concentration in the harvested supernatant (pg/ml) of the mentioned cytokines. Bio-Plex Pro Cytokine, Chemokine and Growth factor assay was used to measure the activation of hPSCs-derived Podocytes cells in response to TNFα.
# In response to proinflammatory stimuli Podocytes express specific cytokines including IL-8, Rantes, MIP-1b and MCP1. Bio-Plex Pro™ Cytokine, Chemokine and Growth factor assay (Biorad, M50-0KCAF0Y). After overnight serum starvation hiPS derived podocytes were exposed at two different concentrations of TNFα (1 and 5 ng/ml) for 24 hours. After treatment the supernatants were collected and used to quantify the Cytokine, Chemokine and Growth factor release using Bio-Plex Pro™ Cytokine, Chemokine and Growth factor assay kit (Biorad, M50-0KCAF0Y). The assay was performed following the manufacturer's instruction. To determine whether the differentiation system generates bona fide Podocytes, we challenged the iPS-derived Podocytes with proinflammatory TNFα and analyzed for cytokine and chemokine release.
substance,measurement,setting,value
"Angiotensin II [AngII, stressor stimulation (100 nM) of podocytes]",ZO-1 cellular localization (perinuclear translocation of ZO-1 expression),[1]; AngII 100 nM,remodeling and translocation of the ZO-1 expression form the membrane to the perinuclear zone
TGF beta: stressor stimulation (10 ng/ml) of podocytes,ZO-1 cellular localization (perinuclear translocation of ZO-1 expression),[1]; TGF beta 10 ng/ml,remodeling and translocation of the ZO-1 expression form the membrane to the perinuclear zone
TNFα,IL-8 concentration in the harvested supernatant,[2],increase of the supernatant concentration; also recorded: significantly upregulated
same,MCP1 concentration in the harvested supernatant,[2],increase of the supernatant concentration; also recorded: significantly upregulated
same,MIP1b concentration in the harvested supernatant,[2],increase of the supernatant concentration; also recorded: significantly upregulated
same,RANTES concentration in the harvested supernatant,[2],increase of the supernatant concentration; also recorded: significantly upregulated
